From patent publication US8283481B2, “Inhibitors of a 9-cis epoxycarotenoid dioxygenase” (National Research Council of Canada, priority 2008, dated 2012)
pKi: −log10 of the molar value. “Also recorded” adds a separate entry of the source.

Key:
recombinant AtNCED3 = target: T1, recombinant AtNCED3 (Arabidopsis thaliana, UniProt Q9LRR7); assay: Recombinant AtNCED3 in vitro enzyme assay (HPLC, cleavage of 9-cis-neoxanthin); assay type: biochemical; conditions: for relative inhibition of AtNCED3 activity (in words): in vitro enzyme assay, 1 mM concentration (FIG. 5); for pKi: Dixon plot, competitive inhibition, 0-250 μM inhibitor, 9-cis-neoxanthin at 50 (55), 30 and 10 μM
T1 construct: glutathione-S-transferase (GST) (C); made in house; host or cells: E. coli BL21(DE3), pRL296 vector
Text: Fresh spinach was macerated under liquid nitrogen and extracted five times with three volumes of methanol/0.1% KOH. Samples were dried using a roto-evaporator, resuspended in acetone and then chilled on ice for one hour. The solvent was subsequently transferred to a new flask, roto-evaporated and resuspended in acetonitrile/acetone (1:1) mixture. The mixture was applied to a gravity flow column containing C-18 silica gel (Sigma) equilibrated in 65% acetonitrile/35% water (solvent C). The column was washed with 49% acetone (solvent D)/51% solvent A and 20 mL of 55% solvent D/45% solvent A while collecting 5 mL fractions. Fractions containing neoxanthin were pooled, dried, and resuspended in 100 μL of methanol. The pooled mixture was separated using an Agilent 1100 series HPLC and a Supelcosil™ LC-18 (25 cm×10 mm, 5 m) (Supelco) column equilibrated with solvent A. The HPLC method consisted of a linear gradient over 30 minutes from 100% solvent A to 100% solvent D with a flow rate of 4 mL/minute at 22° C. and monitored with a PDA detector at 436 nm. The neoxanthin fractions were collected, dried and resuspended in ethanol. Neoxanthin was quantified by determining its OD439 using a PerkinElmer Lambda 35 UV/VIS Spectrometer and applying its extinction coefficient of 2243 (A^1%1cm).^30
AtNCED3 was over-expressed using the pRL296 expression vector (a gift from M. Cygler, BRI, Montreal) in E. coli (BL21)DE3 cells as a glutathione-S-transferase fusion protein and affinity purified using glutathione sepharose 4 fast flow resin (GE Healthcare) as described previously.^35 Essentially, cells were grown to an OD600 of 0.45 at 37° C. and 200 rpm shaking. The culture was induced with 1 mM isopropyl-β-d-thiogalactoside for 16 h at 15° C. and 200 rpm shaking. The cells were pelleted and resuspended in 50 mM Tris-HCl (pH 8.0) 1 mM DTT and 0.5% protease inhibitor cocktail set III (CalBiochem). Cells were lysed using a french press at 20,000 psi and affinity purified as per manufacturer's instructions (GE Healthcare). Protein concentration was determined by the method of Bradford.^36
Enzymatic assays contained 100 mM Bis-Tris (pH 6.7), […], 10 mM ascorbate, 0.05% Triton™ X-100, catalase (1 mg/mL), neoxanthin and inhibitor to a total volume of 5 L of ethanol and 8 g AtNCED3 to a total assay volume of 100 L. Assays were incubated at 22° C. for 20 min. The assays were stopped with the addition of 50 L of 25% Triton™ X-100 and extracted with 150 L of ethyl acetate. All procedures were performed under red-light to minimize photo-induced damage to assay components and products.^6 Fine chemicals and solvents were purchased from Sigma-Aldrich. 75 μL of the assay extract was injected into an Agilent 1100 series HPLC machine equipped with a Supelcosil™ LC-18 (3.3 cm×4.6 mm, 3 m) (Supelco) column pre-equilibrated with 15% acetonitrile (solvent B)/85% water (solvent A). Solvent B increased to 35% over ten minutes, followed by a linear gradient of 65% solvent B to 100% solvent D over 10 minutes. Solvent D was maintained at 100% for 2 minutes and then the column was returned to 15% solvent B for 5 min. The flow rate was maintained at 1.5 mL/min. and monitored with a photodiode array (PDA) detector at 436 and 262 nm.
Evaluation of recombinant AtNCED3 kinetic parameters for Km was accomplished using Michaelis-Menten equation plotted with EnzFitter™ v2.0.18.0 (Biosoft). The Ki for inhibitors was determined using a Dixon plot and concentration ranges of 250, 200, 150, 100, 50 and 0 μM inhibitor in the presence of either 55, 30 or 10 μM 9-cis-neoxanthin 2.^5

[1] = system: Arabidopsis thaliana Col-0 seeds; assay: Seed germination assay; assay type: in vivo
Method: Arabidopsis thaliana Col-0 seeds were sterilized by washing them with 10% sodium hypochlorite and 20% sodium dodecyl sulfate (Sigma) for five minutes and then rinsing four times with sterile water. Seeds were moist chilled for 4 days and then plated on germination medium (0.41% MS salts, 1% sucrose, 0.05% MES and 0.1% Gamborg's vitamins, pH 5.7, 0.7% agar) (Sigma) containing either 0.1, 0.33, 1.0 or 3.33 μM of inhibitor or (+)-ABA 1. As a control, seeds were sewn and germinated on media only without inhibitors or (+)-ABA 1. Germination was recorded over seven days and indexes calculated as described previously.^40

[2] = system: ABA metabolite accumulation; conditions: background, references 17, 18; cited from earlier work
cowpea NCED enzyme = conditions: background, references 17, 18; read-out: Ki, competitive inhibition of cowpea NCED enzyme; cited from earlier work
[3] = system: ABA and catabolites in Arabidopsis thaliana Col-0 plants; assay: Total ABA metabolite levels in mannitol stressed plants treated with SLCCD inhibitors; assay type: in vivo; conditions: 33 μM inhibitor, mannitol stress, first 6 hours
Method: For each condition to be tested, three hundred wild-type Arabidopsis thaliana Col-0 seeds (LEHLE) were sterilized, vernalized and sewn onto 200 mL of Sunshine Mix #3 (Sun Gro) potting material in an 8×8×4 cm pot. Plants were watered continuously with 25 g/100 mL of 20-20-20 (PlantProd™) fertilizer and grown at 22° C. with a 16 hour photoperiod for 22 days. Plants were pre-treated with 50 mL/pot of Buffer A (10 mM HEPES pH 6.5) (Sigma)+/−10 or 33 μM test compound for 2 hours. Plants were then soaked with 50 mL/pot of Buffer A containing 0.4 M mannitol (Sigma)+/−10 or 33 μM test compound. Non-treated/non-stressed control plants were simply soaked in Buffer A at the designated time points. […] Half of the tissue samples were lyophilized for metabolite profiling and the other half taken for quantitative reverse-transcription polymerase chain reaction (qRT-PCR) analysis.
Freeze-dried tissue was homogenized using a multi-tube ball mill (Mini-BeadBeater-96™, Biospec Products Inc., Bartlesville, Okla., USA) and 50 mg of each sample was weighed out into individual Falcon tubes. To each sample, 100 μL of a cocktail of internal standards comprised of (−)-5,8′,8′,8′-d4-ABA, (−)-7′,7′,7′-d3-PA, (−)-5,8′,8′,8′-d4-7′OH ABA, (−)-7′,7′,7′-d3-DPA and (+)-4,5,8′,8′,8′-d5-ABAGE, each at a concentration of 0.2 ng/μL and dissolved in a mixture of water:acetonitrile (1:1, v/v) with 0.5% glacial acetic acid, was added. Further, 3 mL of isopropanol:water:glacial acetic acid (80:19:1, v/v/v) extraction solvent was added, and samples were placed in the fridge (4° C., in the dark) on an orbital shaker at about 350 rpm. After 18-24 hours, the samples were centrifuged at 4.4 krpm for 10 min, the supernatant was transferred to a disposable culture tube, and a second portion of 500 μL extraction solvent mixture was added to wash the pellet. After vortexing and centrifuging again at 4.4 krpm for 10 min, each wash was combined with its appropriate supernatant. The organic extract was dried under reduced pressure, then re-dissolved in 100 μL methanol:glacial acetic acid (99:1, v/v) followed by 900 μL of aqueous 1% glacial acetic acid. This mixture was extracted with 2 mL hexane, and then the aqueous layer was dried down under reduced pressure. The sample was further reconstituted in 2 mL aqueous 1% glacial acetic acid and loaded onto an Oasis MCX SPE cartridge (3 cc, Waters Corporation, Mississauga, Ontario, Canada). After a wash with 3 mL aqueous 1% glacial acetic acid, samples were eluted with 1 mL methanol:glacial acetic acid (99:1, v/v) and then dried down under reduced pressure. The extract was re-dissolved in 100 μL methanol:glacial acetic acid (99:1, v/v) followed by 900 μL of aqueous 1% glacial acetic acid. This mixture was further cleaned on an Oasis HLB SPE cartridge (1 cc, Waters Corporation, Mississauga, Ontario, Canada). After a wash with 1 mL aqueous 1% glacial acetic acid, the fraction containing ABA and ABA metabolites was eluted with 1 mL acetonitrile:water:glacial acetic acid (30:69:1, v/v/v) and then was evaporated to dryness. The final residue was dissolved in 200 μL of acetonitrile:water (15:85, v/v) containing 0.1% glacial acetic acid and 100 pg/μL (±)-3′,5′,5′,7′,7′,7′-d6-ABA as a recovery standard. Finally, the sample was subjected to LC-ES-MS/MS analysis and quantification, as described in Owen and Abrams, 2008.^39

T1 sequence (Q9LRR7 41-599): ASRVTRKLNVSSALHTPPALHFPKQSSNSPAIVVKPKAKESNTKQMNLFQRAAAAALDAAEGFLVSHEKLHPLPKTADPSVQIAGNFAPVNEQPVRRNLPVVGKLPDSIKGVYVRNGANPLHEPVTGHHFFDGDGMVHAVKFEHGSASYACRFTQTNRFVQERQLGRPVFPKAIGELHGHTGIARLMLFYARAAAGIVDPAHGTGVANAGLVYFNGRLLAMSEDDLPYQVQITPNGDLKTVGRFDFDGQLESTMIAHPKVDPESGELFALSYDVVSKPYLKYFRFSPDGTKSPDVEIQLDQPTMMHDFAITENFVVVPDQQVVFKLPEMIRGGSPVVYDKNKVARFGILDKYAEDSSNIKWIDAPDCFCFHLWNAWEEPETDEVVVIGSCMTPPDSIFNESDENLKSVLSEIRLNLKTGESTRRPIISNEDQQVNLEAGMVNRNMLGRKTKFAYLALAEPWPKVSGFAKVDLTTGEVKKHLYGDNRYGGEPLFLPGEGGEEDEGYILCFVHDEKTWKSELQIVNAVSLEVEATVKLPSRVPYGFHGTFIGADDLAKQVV

CC(=C/C=C/C(C)=C/C=C/C=C(C)/C=C/C=C(\C)C=C=C1C(C)(C)C[C@H](O)C[C@@]1(C)O)/C=C/[C@@]12O[C@]1(C)C[C@@H](O)CC2(C)C (relative stereo) [compound 2, 9-cis-Neoxanthin, reference compound]
Km (recombinant AtNCED3; cleavage of 9-cis-neoxanthin 2 by recombinant AtNCED3, Michaelis-Menten plot): 24 µM

CC1=CC(=O)CC(C)(C)C1(O)/C=C/C(C)=C\C(=O)O (single isomer, unassigned; (+)) [(+)-ABA 1, Abscisic acid, reference compound]
reduction of seed germination ([1]; 0.33 μM in germination medium): 47% | reduction of seed germination ([1]; 1 μM in germination medium): 61% | reduction of seed germination ([1]; highest concentration tested (3.33 μM)): 96%

CCSC/C=C(/C)C#C[C@@]1(O)[C@@H](C)CC(=O)CC1(C)C [Compound 12, (4R,5S)-(3′Z)-4-(5′-(Ethylthio)-3′-methylpent-3′-en-1′-ynyl)-4-hydroxy-3,3,5-trimethylcyclohexanone]
relative inhibition of AtNCED3 activity (in words) (recombinant AtNCED3): completely inhibited; also recorded: inhibited the enzyme as strongly as the more xanthoxin-like compounds

CCSC/C=C(/C)C#C[C@]1(O)[C@H](C)C[C@@H](O)CC1(C)C [Compound 14, (1S,4R,6R)-(3′Z)-1-(5′-(Ethylthio)-3′-methylpent-3′-en-1′-ynyl)-2,2,6-trimethylcyclohexane-1,4-diol]
relative inhibition of AtNCED3 activity (in words) (recombinant AtNCED3): did not afford greater activity

COC(=O)CN(C/C=C/c1ccc(OC)c(OC)c1)Cc1ccc(F)cc1 [compound 9, Abamine, reference compound]
pKi (recombinant AtNCED3): 3.88 | reduction of ABA metabolite accumulation [2]: 35% | pKi (cowpea NCED enzyme): 4.73 | levels of ABA and catabolites at first time point (in words) [3]: higher levels of ABA and catabolites at the first time point

Abamine SG [compound 10]
pKi (recombinant AtNCED3): 4.07 | reduction of ABA metabolite accumulation [2]: 77% | pKi (cowpea NCED enzyme): 4.41

CCSC/C=C(/C)C#C[C@]1(O)[C@H](C)CC(=O)CC1(C)C [Compound 11, (4S,5R)-(3′Z)-4-(5′-(Ethylthio)-3′-methylpent-3′-en-1′-ynyl)-4-hydroxy-3,3,5-trimethylcyclohexanone]
relative inhibition of AtNCED3 activity (in words) (recombinant AtNCED3): reduced activity

CCSC/C=C(/C)C#C[C@@]1(O)[C@H](C)C[C@@H](O)CC1(C)C [Compound 15, (1R,4R,6R)-(3′Z)-1-(5′-(Ethylthio)-3′-methylpent-3′-en-1′-ynyl)-2,2,6-trimethylcyclohexane-1,4-diol]
relative inhibition of AtNCED3 activity (in words) (recombinant AtNCED3): did not afford greater activity
